Data: ChEMBL document CHEMBL2062478, “Targeted kinase selectivity from kinase profiling data” (ACS Med Chem Lett, 2012)

Tests used:
[1] = target: Platelet-derived growth factor receptor alpha (Homo sapiens, UniProt P16234); experiment: Inhibition of PDGFRA
[2] = target: Cyclin-dependent kinase 1 (Homo sapiens, UniProt P06493); experiment: Inhibition of CDC2
[3] = target: Cell division cycle 7-related protein kinase (Homo sapiens, UniProt O00311); experiment: Inhibition of CDC7
[4] = target: Epidermal growth factor receptor (Homo sapiens, UniProt P00533); experiment: Inhibition of EGFR
Epidermal growth factor receptor, sequence (P00533 whole entry): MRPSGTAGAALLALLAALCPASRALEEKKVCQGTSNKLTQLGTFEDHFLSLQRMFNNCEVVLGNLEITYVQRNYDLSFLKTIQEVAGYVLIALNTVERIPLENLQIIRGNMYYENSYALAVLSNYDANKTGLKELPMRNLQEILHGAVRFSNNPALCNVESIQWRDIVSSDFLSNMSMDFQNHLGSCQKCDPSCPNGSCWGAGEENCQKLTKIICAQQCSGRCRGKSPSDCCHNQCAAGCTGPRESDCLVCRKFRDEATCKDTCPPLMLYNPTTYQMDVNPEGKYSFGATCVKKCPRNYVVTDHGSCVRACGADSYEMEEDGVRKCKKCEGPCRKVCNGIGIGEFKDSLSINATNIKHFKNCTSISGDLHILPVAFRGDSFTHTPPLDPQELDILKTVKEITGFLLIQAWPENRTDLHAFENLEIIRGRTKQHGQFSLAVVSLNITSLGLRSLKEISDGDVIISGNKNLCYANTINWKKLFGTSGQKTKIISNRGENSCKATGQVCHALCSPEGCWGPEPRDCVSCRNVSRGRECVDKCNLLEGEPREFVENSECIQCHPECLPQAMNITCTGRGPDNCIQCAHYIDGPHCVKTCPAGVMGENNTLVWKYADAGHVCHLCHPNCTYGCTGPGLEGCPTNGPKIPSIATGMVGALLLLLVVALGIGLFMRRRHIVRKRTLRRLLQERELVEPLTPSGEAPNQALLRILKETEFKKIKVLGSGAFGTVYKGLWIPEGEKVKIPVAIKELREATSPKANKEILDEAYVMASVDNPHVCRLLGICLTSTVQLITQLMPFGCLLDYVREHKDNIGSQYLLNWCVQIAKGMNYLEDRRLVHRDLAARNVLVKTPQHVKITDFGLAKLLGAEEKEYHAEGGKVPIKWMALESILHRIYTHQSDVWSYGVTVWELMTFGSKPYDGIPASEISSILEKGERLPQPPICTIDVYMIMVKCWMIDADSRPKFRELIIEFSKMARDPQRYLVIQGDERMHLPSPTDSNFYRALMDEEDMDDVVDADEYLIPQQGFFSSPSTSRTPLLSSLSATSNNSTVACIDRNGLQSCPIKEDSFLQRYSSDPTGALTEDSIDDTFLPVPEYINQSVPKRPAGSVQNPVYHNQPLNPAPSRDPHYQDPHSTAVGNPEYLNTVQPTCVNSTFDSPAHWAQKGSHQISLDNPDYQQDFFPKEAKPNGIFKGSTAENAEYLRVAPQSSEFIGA

[5] = target: Tyrosine-protein kinase Lck (Homo sapiens, UniProt P06239); experiment: Inhibition of LCK
Tyrosine-protein kinase Lck, sequence (P06239 whole entry): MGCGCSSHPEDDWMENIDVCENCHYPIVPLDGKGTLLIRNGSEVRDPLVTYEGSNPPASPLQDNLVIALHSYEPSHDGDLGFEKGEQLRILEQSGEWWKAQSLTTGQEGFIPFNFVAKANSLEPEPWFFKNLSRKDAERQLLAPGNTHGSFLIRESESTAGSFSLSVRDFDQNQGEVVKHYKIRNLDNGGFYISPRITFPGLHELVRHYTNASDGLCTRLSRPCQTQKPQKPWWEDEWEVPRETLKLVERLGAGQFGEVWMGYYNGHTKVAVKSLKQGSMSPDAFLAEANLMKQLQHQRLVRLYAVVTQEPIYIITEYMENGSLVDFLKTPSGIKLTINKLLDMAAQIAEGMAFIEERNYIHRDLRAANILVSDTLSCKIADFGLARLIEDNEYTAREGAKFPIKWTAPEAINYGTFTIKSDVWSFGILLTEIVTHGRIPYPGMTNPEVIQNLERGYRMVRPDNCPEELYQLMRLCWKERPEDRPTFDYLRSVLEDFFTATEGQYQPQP

Cyclin-dependent kinase 1, sequence (P06493 whole entry): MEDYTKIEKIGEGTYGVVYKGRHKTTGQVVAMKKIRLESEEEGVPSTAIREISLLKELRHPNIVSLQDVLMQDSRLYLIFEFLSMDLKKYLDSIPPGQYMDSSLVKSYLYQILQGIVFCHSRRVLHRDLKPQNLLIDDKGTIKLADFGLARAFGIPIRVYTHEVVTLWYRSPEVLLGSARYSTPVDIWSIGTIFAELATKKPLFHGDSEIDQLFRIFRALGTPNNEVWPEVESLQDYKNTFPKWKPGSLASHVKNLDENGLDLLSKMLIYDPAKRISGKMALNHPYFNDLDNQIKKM
Platelet-derived growth factor receptor alpha, sequence (P16234 whole entry): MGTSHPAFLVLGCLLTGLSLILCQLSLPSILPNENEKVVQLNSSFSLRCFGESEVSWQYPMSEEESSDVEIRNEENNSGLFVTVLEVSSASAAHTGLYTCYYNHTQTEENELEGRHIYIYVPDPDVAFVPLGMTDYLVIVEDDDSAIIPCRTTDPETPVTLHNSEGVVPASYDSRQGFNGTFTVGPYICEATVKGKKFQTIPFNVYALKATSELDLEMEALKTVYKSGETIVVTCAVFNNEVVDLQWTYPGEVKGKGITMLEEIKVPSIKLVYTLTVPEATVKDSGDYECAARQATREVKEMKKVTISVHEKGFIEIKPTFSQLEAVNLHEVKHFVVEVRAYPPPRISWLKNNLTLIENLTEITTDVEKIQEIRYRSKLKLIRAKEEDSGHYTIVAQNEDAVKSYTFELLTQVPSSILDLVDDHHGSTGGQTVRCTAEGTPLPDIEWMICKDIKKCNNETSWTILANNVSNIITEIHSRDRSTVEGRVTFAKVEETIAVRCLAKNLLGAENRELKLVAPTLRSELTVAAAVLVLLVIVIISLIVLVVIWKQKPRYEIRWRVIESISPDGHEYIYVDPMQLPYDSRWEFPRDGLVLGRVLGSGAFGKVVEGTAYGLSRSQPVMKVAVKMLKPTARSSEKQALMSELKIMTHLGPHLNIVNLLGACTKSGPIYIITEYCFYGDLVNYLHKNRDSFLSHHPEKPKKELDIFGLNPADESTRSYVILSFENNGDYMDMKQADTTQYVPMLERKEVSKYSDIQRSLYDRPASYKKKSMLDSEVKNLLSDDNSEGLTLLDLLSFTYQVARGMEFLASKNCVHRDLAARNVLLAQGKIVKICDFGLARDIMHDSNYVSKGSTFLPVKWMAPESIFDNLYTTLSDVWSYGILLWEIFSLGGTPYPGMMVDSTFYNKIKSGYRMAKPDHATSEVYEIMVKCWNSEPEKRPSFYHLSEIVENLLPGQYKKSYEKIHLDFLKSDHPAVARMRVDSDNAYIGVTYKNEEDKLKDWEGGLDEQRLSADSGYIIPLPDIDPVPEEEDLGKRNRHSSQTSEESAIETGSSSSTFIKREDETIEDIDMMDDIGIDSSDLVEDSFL
Cell division cycle 7-related protein kinase, sequence (O00311 whole entry): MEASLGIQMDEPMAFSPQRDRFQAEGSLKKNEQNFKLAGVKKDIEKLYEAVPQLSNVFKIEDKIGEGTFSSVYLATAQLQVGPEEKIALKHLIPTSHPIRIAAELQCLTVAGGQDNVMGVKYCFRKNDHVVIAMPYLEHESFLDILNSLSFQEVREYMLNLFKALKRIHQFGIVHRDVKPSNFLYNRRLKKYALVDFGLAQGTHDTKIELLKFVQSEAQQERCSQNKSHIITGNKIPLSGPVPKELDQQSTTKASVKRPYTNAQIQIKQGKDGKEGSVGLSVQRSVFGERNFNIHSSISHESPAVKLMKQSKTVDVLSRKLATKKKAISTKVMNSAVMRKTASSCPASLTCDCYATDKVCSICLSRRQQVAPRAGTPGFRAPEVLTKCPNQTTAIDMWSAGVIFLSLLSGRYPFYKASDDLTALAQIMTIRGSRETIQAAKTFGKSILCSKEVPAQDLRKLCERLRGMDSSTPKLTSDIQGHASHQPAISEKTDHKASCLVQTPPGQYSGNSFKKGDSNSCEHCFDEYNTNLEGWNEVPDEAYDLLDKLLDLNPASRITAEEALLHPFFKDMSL

Structure (SMILES)	Ki [1]	Ki [2]	further results
CC(C)(C(N)=O)n1cc(-c2cnc(N)c3c(-c4ccc(NC(=O)Nc5cccc(F)c5)cc4)csc23)cn1	> 10000 nM	–	–
Cc1cccc(NC(=O)Nc2ccc(-c3csc4c(C#CC(C)(C)N)cnc(N)c34)cc2)c1	> 10000 nM	–	–
O=C(Nc1n[nH]c2ccc(-c3cn(Cc4ccccc4)nn3)cc12)c1cccc(Cl)c1	–	> 10000 nM	–
C[C@@H](O)Cn1cc(-c2cnc(N)c3c(-c4ccc(NC(=O)Nc5cccc(F)c5)cc4)csc23)cn1	> 10000 nM	–	–
O[C@H]1CC[C@H](Nc2nc(Cl)cc(-c3c[nH]c4ncccc34)n2)CC1	–	39.8 nM	Ki [3]: 0.158 nM
CN(C)[C@H]1CC[C@H](Nc2nc(Cl)cc(-c3c[nH]c4ncccc34)n2)CC1	–	> 10000 nM	Ki [3]: 0.316 nM
O=C(Cc1ccccc1)Nc1cc(-c2nc3sccn3c2-c2ccnc(Nc3ccc(N4CCOCC4)cc3)n2)ccc1Cl	–	–	Ki [4]: > 10000 nM; Ki [5]: 79.4 nM
